Target: T1, human TREK-1 (Homo sapiens, UniProt O95069)
T1 construct: expressed in transfected cells
T1 sequence (O95069 1-426): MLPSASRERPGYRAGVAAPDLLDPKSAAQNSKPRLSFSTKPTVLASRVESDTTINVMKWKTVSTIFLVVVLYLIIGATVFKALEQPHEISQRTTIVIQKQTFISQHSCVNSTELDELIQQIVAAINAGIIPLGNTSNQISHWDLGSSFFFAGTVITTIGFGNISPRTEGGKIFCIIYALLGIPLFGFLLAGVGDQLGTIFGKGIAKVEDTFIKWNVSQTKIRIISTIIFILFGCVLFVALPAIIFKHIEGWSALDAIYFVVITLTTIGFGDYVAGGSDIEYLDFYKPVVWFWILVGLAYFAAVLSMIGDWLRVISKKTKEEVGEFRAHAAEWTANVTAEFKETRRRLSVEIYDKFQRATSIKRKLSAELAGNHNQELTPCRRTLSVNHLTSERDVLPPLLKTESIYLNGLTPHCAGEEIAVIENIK
Test: TREK-1 Thallium (Tl+) flux assay, Method 1
Assay type: cell-based
Details: TREK-1 Thallium (Tl+) flux assay, Method 1
Procedure: The term “thallium flux assay” herein refers to a fluorescence-based assay used to monitor the activity of TREK channels. Thallium is a congener of potassium that readily fluxes through the pore of TREK channels. Thallium flux is measured using a commercially available, thallium-sensitive fluorescent dye called Thallos. The detail method is described below.
CHO-K1 cells stably expressing human TREK-1 were plated in 384-well plates, cultured overnight, loaded with Thallos dye the following day. Test compounds or control compound (tert-butyl (3-((4-(benzyloxy)-2-methylphenyl)carbamoyl)-4-chlorophenyl)carbamate) or 0.3% DMSO (vehicle control) which were prepared on separate plates were added to the cell plates and incubated for 10 min, and then the cells were treated with thallium stimulus buffer to initiate thallium flux. To measure the efficacy and potency of test compounds, the change in fluorescence intensity (ΔRatio) and % inhibition were calculated using the following equations:
ΔRatio=(fluorescence intensity at 25 seconds after thallium addition)/(average of fluorescent intensity before thallium addition)

| IC50 [µM] | SMILES |
| --- | --- |
| 9.96 | COc1cc(-c2cnc(NC(=O)c3c(Cl)cnn3C3CCN(C(=O)OC(C)(C)C)CC3)c(C)c2)ccn1 [Compound 437, tert-butyl 4-(4-chloro-5-((2′-methoxy-5-methyl-[3,4′-bipyridin]-6-yl)carbamoyl)-1H-pyrazol-1-yl)piperidine-1-carboxylate] |
| 3.62 | CC(=O)N1CCC(n2ncc(Cl)c2C(=O)Nc2ncc(-c3ccc(OC(F)(F)F)cc3)cc2C)CC1 [Compound 414, 1-(1-acetylpiperidin-4-yl)-4-chloro-N-(3-methyl-5-(4-(trifluoromethoxy)phenyl)pyridin-2-yl)-1H-pyrazole-5-carboxamide] |

Same assay, conditions: TREK-1 Thallium (Tl+) flux assay; no *^12 (Method 2) mark on these rows

| IC50 [µM] | SMILES |
| --- | --- |
| 0.37 | CC(C)(C)OC(=O)N1CCC(n2ncc(Cl)c2C(=O)Nc2ncc(C#Cc3ccccc3)cc2F)C1 (centres unmarked) [Compound 237, tert-butyl 3-(4-chloro-5-((3-fluoro-5-(phenylethynyl)pyridin-2-yl)carbamoyl)-1H-pyrazol-1-yl)pyrrolidine-1-carboxylate] |
| 0.92 | CC(C)(C)OC(=O)N1CCCC(Cn2ncc(Cl)c2C(=O)Nc2ncc(C#Cc3ccccc3)cc2F)C1 (centres unmarked) [Compound 365, tert-butyl 3-((4-chloro-5-((3-fluoro-5-(phenylethynyl)pyridin-2-yl)carbamoyl)-1H-pyrazol-1-yl)methyl)piperidine-1-carboxylate] |
| 0.31 | Cc1cc(C#Cc2cccs2)cnc1NC(=O)c1c(Cl)cnn1[C@H]1C[C@@H]2CN(C(=O)C3CC3)C[C@@H]2C1 [Compound 204, 4-chloro-1-[(3aR,5s,6aS)-2-(cyclopropanecarbonyl)octahydrocyclo-penta[c]pyrrol-5-yl]-N-{3-methyl-5-[(thiophen-2-yl)ethynyl]pyridin-2-yl}-1H-pyrazole-5-carboxamide] |
| 0.54 | O=C(Nc1ncc(C#Cc2ccccc2)cc1F)c1c(Cl)cnn1C1CCN(C(=O)C2CCCC2)CC1 [Compound 299, 4-chloro-1-(1-(cyclopentanecarbonyl)piperidin-4-yl)-N-(3-fluoro-5-(phenylethynyl)pyridin-2-yl)-1H-pyrazole-5-carboxamide] |
| 0.72 | CC(C)(C)OC(=O)N1CC[C@@H](n2ncc(Cl)c2C(=O)Nc2ncc(C#Cc3ccccc3)cc2F)[C@H](F)C1 [Compound 337, tert-butyl (3R,4R)-4-(4-chloro-5-((3-fluoro-5-(phenylethynyl)pyridin-2-yl)carbamoyl)-1H-pyrazol-1-yl)-3-fluoropiperidine-1-carboxylate] |

Same assay, conditions: TREK-1 Thallium (Tl+) flux assay; values without footnote *12 are Method 1

| IC50 [µM] | SMILES |
| --- | --- |
| 0.23 | N#CC1(Cn2ncc(Cl)c2C(=O)Nc2ncc(C#Cc3ccccc3)cc2F)CC1 [Compound 141, 4-chloro-1-((1-cyanocyclopropyl)methyl)-N-(3-fluoro-5-(phenylethynyl)pyridin-2-yl)-1H-pyrazole-5-carboxamide] |
| 0.22 | CC(=O)N1CC(Cn2ncc(Cl)c2C(=O)Nc2ncc(C#Cc3ccccc3)cc2C)C1 [Compound 135, 1-((1-acetylazetidin-3-yl)methyl)-4-chloro-N-(3-methyl-5-(phenylethynyl)pyridin-2-yl)-1H-pyrazole-5-carboxamide] |
| 0.27 | CC(C)(C)OC(=O)N1C[C@H]2C[C@H](n3ncc(Cl)c3C(=O)Nc3ncc(C#Cc4ccccc4)cc3F)C[C@H]2C1 [Compound 170, tert-butyl (3aR,5s,6aS)-5-(4-chloro-5-{[3-fluoro-5-(phenylethynyl)pyridin-2-yl]carbamoyl}-1H-pyrazol-1-yl)hexahydrocyclopenta[c]pyrrole-2(1H)-carboxylate] |
| 0.17 | CC(=O)N1CC[C@@H](n2ncc(Cl)c2C(=O)Nc2ncc(C#Cc3ccccc3)cc2C)C[C@@H]1C (single isomer, unassigned) [Compound 86, 1-[(2S,4R)-1-acetyl-2-methylpiperidin-4-yl]-4-chloro-N-[3-methyl-5-(phenylethynyl)pyridin-2-yl]-1H-pyrazole-5-carboxamide or 1-[(2R,4S)-1-acetyl-2-methylpiperidin-4-yl]-4-chloro-N-[3-methyl-5-(phenylethynyl)pyridin-2-yl]-1H-pyrazole-5-carboxamide] |
